Data taken from PubChem BioAssay (NCI).
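Assay format: 96-well plates, 48-hour exposure. TGI denotes the concentration required for complete inhibition of growth.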

How the values were obtained:
Assay in all cases: DTP human tumour cell line panel, 48 h
786-0 renal = system: 786-0 renal
A498 renal = system: A498 renal
A549 NSCLC = system: A549 NSCLC
ACHN renal = system: ACHN renal
BT-549 breast = system: BT-549 breast
CAKI-1 renal = system: CAKI-1 renal
CCRF-CEM leukemia = system: CCRF-CEM leukemia
COLO 205 colon = system: COLO 205 colon
DU-145 prostate = system: DU-145 prostate
EKVX NSCLC = system: EKVX NSCLC
HCC-2998 colon = system: HCC-2998 colon
HCT-116 colon = system: HCT-116 colon
HCT-15 colon = system: HCT-15 colon
HL-60(TB) leukemia = system: HL-60(TB) leukemia
HOP-62 NSCLC = system: HOP-62 NSCLC
HOP-92 NSCLC = system: HOP-92 NSCLC
HS 578T breast = system: HS 578T breast
HT29 colon = system: HT29 colon
IGROV1 ovarian = system: IGROV1 ovarian
K-562 leukemia = system: K-562 leukemia
KM12 colon = system: KM12 colon
LOX IMVI melanoma = system: LOX IMVI melanoma
M14 melanoma = system: M14 melanoma
MALME-3M melanoma = system: MALME-3M melanoma
MCF7 breast = system: MCF7 breast
MDA-MB-231 breast = system: MDA-MB-231 breast
MDA-MB-435 = system: MDA-MB-435
MDA-N = system: MDA-N
MOLT-4 leukemia = system: MOLT-4 leukemia
NCI-H226 lung = system: NCI-H226 lung
NCI-H23 lung = system: NCI-H23 lung
NCI-H460 lung = system: NCI-H460 lung
NCI-H522 lung = system: NCI-H522 lung
NCI/ADR-RES ovarian = system: NCI/ADR-RES ovarian
OVCAR-3 ovarian = system: OVCAR-3 ovarian
OVCAR-4 ovarian = system: OVCAR-4 ovarian
OVCAR-5 ovarian = system: OVCAR-5 ovarian
OVCAR-8 ovarian = system: OVCAR-8 ovarian
PC-3 prostate = system: PC-3 prostate
RXF 393 renal = system: RXF 393 renal
SF-268 CNS = system: SF-268 CNS
SF-295 CNS = system: SF-295 CNS
SF-539 CNS = system: SF-539 CNS
SK-MEL-2 melanoma = system: SK-MEL-2 melanoma
SK-MEL-28 melanoma = system: SK-MEL-28 melanoma
SK-MEL-5 melanoma = system: SK-MEL-5 melanoma
SK-OV-3 ovarian = system: SK-OV-3 ovarian
SN12C renal = system: SN12C renal
SNB-19 CNS = system: SNB-19 CNS
SNB-75 CNS = system: SNB-75 CNS
SR leukemia = system: SR leukemia
SW-620 colon = system: SW-620 colon
T-47D breast = system: T-47D breast
TK-10 renal = system: TK-10 renal
U251 CNS = system: U251 CNS
UACC-257 melanoma = system: UACC-257 melanoma
UACC-62 melanoma = system: UACC-62 melanoma
UO-31 renal = system: UO-31 renal

With `Cc1ccc(NC(=O)c2cccc(OP(=O)(Nc3ccc(C)cc3)Nc3ccc(C)cc3)c2)cc1` the TGI (786-0 renal) was greater than 100 µM, the TGI (A498 renal) was 62.3 µM and the TGI (A549 NSCLC) was 27.2 µM. It also gave a TGI (ACHN renal) of 20.6 µM, a TGI (BT-549 breast) greater than 100 µM and a TGI (CAKI-1 renal) greater than 100 µM. For the same compound, the TGI (CCRF-CEM leukemia) was greater than 100 µM, the TGI (COLO 205 colon) was 5.27 µM and the TGI (DU-145 prostate) was greater than 100 µM. It also gave a TGI (EKVX NSCLC) greater than 100 µM, a TGI (HCC-2998 colon) greater than 100 µM and a TGI (HCT-116 colon) of 80.8 µM. For the same compound, the TGI (HCT-15 colon) was greater than 100 µM, the TGI (HL-60(TB) leukemia) was greater than 100 µM and the TGI (HOP-62 NSCLC) was greater than 100 µM. For the same compound, the TGI (HOP-92 NSCLC) was 8.93 µM, the TGI (HS 578T breast) was 79.9 µM and the TGI (HT29 colon) was 14.9 µM. The TGI (IGROV1 ovarian) was greater than 100 µM, the TGI (K-562 leukemia) was greater than 100 µM and the TGI (KM12 colon) was greater than 100 µM. It also gave a TGI (LOX IMVI melanoma) greater than 100 µM, a TGI (M14 melanoma) of 9.08 µM and a TGI (MALME-3M melanoma) of 39.6 µM. The TGI (MCF7 breast) was greater than 100 µM, the TGI (MDA-MB-231 breast) was 16.1 µM and the TGI (MDA-MB-435) was greater than 100 µM. It also gave a TGI (MDA-N) of 21.7 µM, a TGI (MOLT-4 leukemia) of 6.37 µM and a TGI (NCI-H226 lung) of 63.6 µM. The TGI (NCI-H23 lung) was greater than 100 µM, the TGI (NCI-H460 lung) was greater than 100 µM and the TGI (NCI-H522 lung) was 12 µM. The TGI (NCI/ADR-RES ovarian) was greater than 100 µM, the TGI (OVCAR-3 ovarian) was greater than 100 µM and the TGI (OVCAR-4 ovarian) was 61.9 µM. It also gave a TGI (OVCAR-5 ovarian) greater than 100 µM, a TGI (OVCAR-8 ovarian) greater than 100 µM and a TGI (PC-3 prostate) greater than 100 µM. It also gave a TGI (RXF 393 renal) of 6.75 µM, a TGI (SF-268 CNS) greater than 100 µM and a TGI (SF-295 CNS) greater than 100 µM. For the same compound, the TGI (SF-539 CNS) was greater than 100 µM, the TGI (SK-MEL-2 melanoma) was greater than 100 µM and the TGI (SK-MEL-28 melanoma) was greater than 100 µM. The TGI (SK-MEL-5 melanoma) was greater than 100 µM, the TGI (SK-OV-3 ovarian) was greater than 100 µM and the TGI (SN12C renal) was greater than 100 µM. For the same compound, the TGI (SNB-19 CNS) was greater than 100 µM, the TGI (SNB-75 CNS) was 30.6 µM and the TGI (SR leukemia) was 17.1 µM. The TGI (SW-620 colon) was greater than 100 µM, the TGI (T-47D breast) was greater than 100 µM and the TGI (TK-10 renal) was 83.4 µM. For the same compound, the TGI (U251 CNS) was greater than 100 µM, the TGI (UACC-257 melanoma) was greater than 100 µM and the TGI (UACC-62 melanoma) was greater than 100 µM. For the same compound, the TGI (UO-31 renal) was 45.3 µM.
